Source: patent publication US12600732B2, “Bifunctional compounds for degrading BTK via ubiquitin proteosome pathway” (NURIX THERAPEUTICS, INC., priority 2019, dated 2026)

How the values were obtained:
[1] = target: T1, ITK (Homo sapiens, UniProt Q08881); assay: ITK levels in MOLT4 and TMD8 cells (FIGS. 10-12); assay type: cell-based; details: for effect on ITK levels in cells: MOLT4 and TMD8 cells, FIGS. 11A and 11B
T1 construct: endogenous in cells; host or cells: MOLT4, TMD8
T1 sequence (Q08881 1-620): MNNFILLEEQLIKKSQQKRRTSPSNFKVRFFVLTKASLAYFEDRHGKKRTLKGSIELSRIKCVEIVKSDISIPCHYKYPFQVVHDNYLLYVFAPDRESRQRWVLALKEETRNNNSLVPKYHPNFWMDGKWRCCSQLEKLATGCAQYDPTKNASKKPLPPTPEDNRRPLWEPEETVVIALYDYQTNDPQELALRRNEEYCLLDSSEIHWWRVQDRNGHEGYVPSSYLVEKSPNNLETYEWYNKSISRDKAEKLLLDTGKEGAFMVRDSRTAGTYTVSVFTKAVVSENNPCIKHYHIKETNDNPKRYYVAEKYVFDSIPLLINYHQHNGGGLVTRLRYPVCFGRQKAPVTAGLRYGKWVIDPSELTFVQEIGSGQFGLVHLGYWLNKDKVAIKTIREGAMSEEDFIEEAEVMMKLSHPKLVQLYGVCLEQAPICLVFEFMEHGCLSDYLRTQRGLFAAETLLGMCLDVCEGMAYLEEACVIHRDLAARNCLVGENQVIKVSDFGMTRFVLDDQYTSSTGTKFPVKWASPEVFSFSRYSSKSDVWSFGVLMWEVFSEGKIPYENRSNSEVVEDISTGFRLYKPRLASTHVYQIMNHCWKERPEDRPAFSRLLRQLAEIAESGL
From the text: FIGS. 10A and 10B provide effects of compounds 73, 72, 121, and 44, and control compounds, on neo-substrate and ITK or BTK levels after twenty-four hours in MOLT4 cells (FIG. 10A) and TMD8 cells (FIG. 10B).
FIGS. 11A and 11B provide effects of compounds 44, 72, and 149, and control compounds, on CRBN neo-substrate and ITK levels in MOLT4 cells (FIG. 11A) and TMD8 cells (FIG. 11B).
FIG. 12 provides effects of compounds 130, 149, and 44 on ITK levels and IMiD activity.

[2] = target: T2, BTK (Homo sapiens, UniProt Q06187); assay: Cellular BTK degradation assay (Total BTK HTRF) in TMD8 cells; assay type: cell-based; design: endogenous in cells; host or cells: TMD8; details: treatment time 24 h
Protocol: Cellular BTK Degradation Assay
In Vitro Cellular Screening to Determine Potency as Measured by DC50 Values after Four Hour Incubation
(§1) BTK levels were determined using Cisbio Total-BTK HTRF (Homologous Time-Resolved Fluorescence) kit (63ADK064PEG) according to the manufacturer's protocol. Briefly, cells were incubated in 1× supplied lysis buffer for 30 minutes. In an opaque white low volume 96-well plate (Cisbio, 66PL96005), cell lysate was combined with two different specific BTK antibodies, one conjugated with Eu^3+-Cryptate FRET donor and one conjugated with d2 FRET acceptor. Assay controls include wells containing cell lysate with only the Eu^3+-Cryptate FRET donor antibody and wells containing both HTRF antibodies and lysis buffer without cells or control lysate provided by Cisbio. HTRF ratio was calculated as (acceptor signal at 665 nm/donor signal at 620 nm)×10^4. Background HTRF levels were determined from the control well containing the donor, but no acceptor, antibody. Background HTRF levels were subtracted from all samples. Readouts were reported as HTRF levels relative to HTRF levels of DMSO-treated cells. Four-parameter non-linear regressions were performed in GraphPad Prism 7.02 to obtain DC50 values.
Cellular BTK degradation was measured as above for four hours in TMD8 cells for two diastereomers of compound 130. DC50 and EC50 values are the concentration at which the response is halfway between the top and bottom of the fitted non-linear regression curve.
The present example evaluates whether potency of BTK CTMs shifts with longer timepoints. DC50 values are typically calculated with a 4-hour timepoint.

[3] = Compound plasma exposure in cyno DRF study; assay type: in vivo; details: cynomolgus monkey, po
Protocol: This example evaluates compound plasma concentration which results in in vivo BTK and/or Aiolos degradation in cyno. The data in the table below is from a study in which animals were dosed daily with the designated oral dose. Analysis for compound concentration in plasma was performed twenty-four hours following the previous dose.

[4] = Compound plasma exposure in mouse (CD-1), daily oral dosing, same table as the cyno DRF study; assay type: in vivo; details: CD-1, mouse
[5] = target: T2, BTK; assay: BTK degradation (Total BTK HTRF) in Rec-1 cells (Mantle Cell Lymphoma model); assay type: cell-based; design: endogenous in cells; host or cells: TMD8, Mino, Rec-1; details: treatment time 4 h
Protocol: as §1
This example evaluates the potency of CTMs in a model of Mantle Cell Lymphoma (MCL). To evaluate potential therapeutic indications, BTK CTMs were assayed in models of Mantle Cell Lymphoma as with the TMD8 cells (ABC-DLBCL) above. Tested CTMs had similar potencies for BTK degradation in the MCL cell lines (Mino and Rec-1) and TMD8 cells.

[6] = target: T2, BTK; assay: BTK degradation in human PBMCs (BTK flow cytometry), primary human B cells; assay type: cell-based; design: endogenous in cells; host or cells: human PBMC (B cells) from healthy donors
Protocol: Human peripheral blood mononuclear cells (PBMC) were obtained either: 1) by using Ficoll-Paque™ (GE Healthcare) for separation of peripheral blood hematopoietic cells from buffy coats of healthy human donors; or 2) directly from LeukoPak donations. PBMCs were grown at 37° C. and 5% CO2 in RPMI supplemented with 10% heat-inactivated FBS (Corning Premium Fetal Bovine Serum from Fisher, MT35015CV), 1× Penicillin/Streptomycin, and 2 mM Glutamine.
BTK Degradation in Human PBMCs (BTK Flow Cytometry)
This example evaluates the potency of CTMs in primary human B cells, rather than transformed or immortalized cancer cell lines. Primary cells are believed to be a physiologically relevant model. Thus, this example confirms the potency, kinetics, and level of BTK degradation in these cells in addition to the cell line models. Furthermore, this assay establishes that it is possible to monitor BTK degradation in primary human B cells, which can serve as a clinical biomarker.

[7] = after twenty-four hours, TMD8 and/or MOLT4 cells, FIGS. 10A and 10B
[8] = 10 mg/kg, 10 mg/kg PO, 1 day of dosing
[9] = 10 mg/kg, 10 mg/kg PO, 14 days of dosing
[10] = 30 mg/kg, 30 mg/kg PO, 1 day of dosing
[11] = 30 mg/kg, 30 mg/kg PO, 14 days of dosing
[12] = 100 mg/kg, 100 mg/kg PO, 1 day of dosing
[13] = 100 mg/kg, 100 mg/kg PO, 14 days of dosing
[14] = 300 mg/kg, 300 mg/kg PO, 1 day of dosing
[15] = 300 mg/kg, 300 mg/kg PO, 14 days of dosing

T2 sequence (Q06187 whole entry): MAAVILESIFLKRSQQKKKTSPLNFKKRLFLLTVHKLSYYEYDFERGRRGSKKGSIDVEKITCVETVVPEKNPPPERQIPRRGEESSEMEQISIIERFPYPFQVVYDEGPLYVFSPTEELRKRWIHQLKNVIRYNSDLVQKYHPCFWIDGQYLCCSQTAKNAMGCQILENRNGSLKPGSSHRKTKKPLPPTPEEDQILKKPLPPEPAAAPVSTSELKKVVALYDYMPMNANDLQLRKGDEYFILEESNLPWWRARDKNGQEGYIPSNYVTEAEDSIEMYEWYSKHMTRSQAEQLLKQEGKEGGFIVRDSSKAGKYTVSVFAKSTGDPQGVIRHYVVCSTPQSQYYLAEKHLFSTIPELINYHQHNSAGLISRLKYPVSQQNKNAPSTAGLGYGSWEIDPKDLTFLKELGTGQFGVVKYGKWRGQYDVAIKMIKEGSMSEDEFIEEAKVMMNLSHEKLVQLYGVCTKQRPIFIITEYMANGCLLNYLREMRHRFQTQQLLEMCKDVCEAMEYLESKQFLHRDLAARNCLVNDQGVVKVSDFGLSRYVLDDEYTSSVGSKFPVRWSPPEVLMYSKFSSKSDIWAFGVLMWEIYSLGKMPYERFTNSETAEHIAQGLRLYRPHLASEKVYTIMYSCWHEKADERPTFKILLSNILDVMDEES

CN1CCN([C@@H]2CCCN(c3cnc(C(N)=O)c(Nc4ccc(C5CCN(CC6CCN(c7ccc8c(=O)n(C9CCC(=O)NC9=O)ccc8c7)CC6)CC5)cc4)n3)C2)C1=O (stereo partly shown) [Compound 72]
effects on ITK levels ([1]; FIG. 12): slight effects
effects on ITK levels [1, 7]: does affect
DC50 [2]: 0.21 nM

NC(=O)c1ncc(N2CCCCC2)nc1Nc1ccc(C2CCN(C[C@@H]3CCN(c4ccc5c(c4)C(=O)N(C4CCC(=O)NC4=O)C5=O)C3)CC2)cc1 (stereo partly shown) [Compound 149]
Cmax [3, 8]: 42 nM
AUC [3, 9]: 0.763 µM·h
Cmax [3, 9]: 49 nM
Cmax [3, 10]: 51 nM
AUC [3, 11]: 1.48 µM·h
Cmax [3, 11]: 88 nM
AUC [3, 12]: 0.714 µM·h
Cmax [3, 13]: 159 nM
effect on ITK levels in cells [1]: some effect
AUC [4, 10]: 12.2 µM·h
Cmax [4, 10]: 940 nM
AUC [4, 11]: 22.8 µM·h
Cmax [4, 11]: 1640 nM
AUC [4, 12]: 27.7 µM·h
Cmax [4, 12]: 2050 nM
AUC [4, 13]: 33.4 µM·h
Cmax [4, 13]: 2410 nM
AUC [4, 14]: 38.6 µM·h
Cmax [4, 14]: 2610 nM
AUC [4, 15]: 64.2 µM·h
Cmax [4, 15]: 4100 nM
DC50 [2]: 2.3 nM
DC50 [5]: 4 nM
DC50 ([6]; treatment time 4 h): 1.9 nM

CN1CCN([C@@H]2CCCN(c3cnc(C(N)=O)c(Nc4ccc(C5CCN(CC6CCN(c7ccc(-c8nn(C9CCC(=O)NC9=O)c(=O)n8C)cc7)CC6)CC5)cc4)n3)C2)C1=O (stereo partly shown) [Compound 121]
effects on ITK levels [1, 7]: minimal effects
DC50 [2]: 1 nM

CN1CCN([C@@H]2CCCN(c3cnc(C(N)=O)c(Nc4ccc(C5CCN(C[C@H]6CCN(c7ccc8c(c7)C(=O)N(C7CCC(=O)NC7=O)C8=O)C6)CC5)cc4)n3)C2)C1=O (stereo partly shown) [Compound 44]
Cmax [3, 8]: 10.6 nM
AUC [3, 9]: 0.467 µM·h
Cmax [3, 9]: 34 nM
Cmax [3, 10]: 18 nM
AUC [3, 11]: 0.794 µM·h
Cmax [3, 11]: 55.5 nM
AUC [3, 12]: 0.294 µM·h
Cmax [3, 13]: 94.2 nM
effect on ITK levels in cells [1]: some effect
effects on ITK levels [1, 7]: some effects
AUC [4, 10]: 2.32 µM·h
Cmax [4, 10]: 230 nM
AUC [4, 11]: 2.22 µM·h
Cmax [4, 11]: 250 nM
AUC [4, 12]: 4.15 µM·h
Cmax [4, 12]: 400 nM
AUC [4, 13]: 8.07 µM·h
Cmax [4, 13]: 590 nM
AUC [4, 14]: 9.53 µM·h
Cmax [4, 14]: 740 nM
AUC [4, 15]: 12.8 µM·h
Cmax [4, 15]: 940 nM
DC50 [2]: 0.36 nM
DC50 [5]: 1 nM
DC50 ([6]; treatment time 1 h): 6 nM
DC50 ([6]; treatment time 2 h): 3 nM
DC50 ([6]; treatment time 4 h): 0.51 nM

CN1CCN([C@H]2CCCN(c3cnc(C(N)=O)c(Nc4ccc(C5CCN(CC6CCN(c7ccc(C(=O)NC8CCC(=O)NC8=O)nc7)CC6)CC5)cc4)n3)C2)C1=O (stereo partly shown) [Compound 130]
Cmax [3, 8]: 20 nM
AUC [3, 9]: 0.387 µM·h
Cmax [3, 9]: 28 nM
Cmax [3, 10]: 55 nM
AUC [3, 11]: 0.844 µM·h
Cmax [3, 11]: 54 nM
AUC [3, 12]: 1.4 µM·h
Cmax [3, 13]: 177 nM
effects on ITK levels ([1]; FIG. 12): slight effects
AUC [4, 10]: 23.2 µM·h
Cmax [4, 10]: 2200 nM
AUC [4, 11]: 21.1 µM·h
Cmax [4, 11]: 1700 nM
AUC [4, 12]: 51.3 µM·h
Cmax [4, 12]: 3800 nM
AUC [4, 13]: 49.8 µM·h
Cmax [4, 13]: 3400 nM
AUC [4, 14]: 67 µM·h
Cmax [4, 14]: 5100 nM
AUC [4, 15]: 72.2 µM·h
Cmax [4, 15]: 5200 nM
DC50 [5]: 2 nM
DC50 ([6]; treatment time 4 h): 0.13 nM
